# Source: PubChem BioAssay AID1963977 (Molecular Pharmacology Branch, DTP, NCI, 2024)
# Values joined by “and” are separate entries in the source; they are usually repeats but may differ in a detail not shown here. Equal values may be shown once.
# System: 624824-186-R-J3-PDC multicell spheroids, viability
# Test: Anticancer human tumor 624824-186-R-J3-PDC patient-derived colon adenocarcinoma cell line growth inhibition [PI3K]
# Conditions: for viability, T/C: stronger effect = lower value
# Summary of the method: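 Targeted small molecules plus PI3K inhibitors, half-log dose series from Cmax (default top 10 microM), were applied to heterotypic spheroids of cancer cells with HUVEC and MSCs. Viability indicated growth inhibition.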
# [1] = curve of first compound, second compound 0.00316 µM
# [2] = curve of first compound, second compound 0.01 µM
# [3] = curve of first compound, second compound 0.0316 µM
# [4] = curve of first compound, second compound 0.1 µM
# [5] = curve of first compound, second compound 0.316 µM
# [6] = curve of first compound, second compound 1 µM
# [7] = second compound 0.00316 µM, first compound 0.000316 µM
# [8] = second compound 0.00316 µM, first compound 0.001 µM
# [9] = second compound 0.00316 µM, first compound 0.00316 µM
# [10] = second compound 0.00316 µM, first compound 0.01 µM
# [11] = second compound 0.00316 µM, first compound 0.0316 µM
# [12] = second compound 0.00316 µM, first compound 0.1 µM
# [13] = second compound 0.01 µM, first compound 0.000316 µM
# [14] = second compound 0.01 µM, first compound 0.001 µM
# [15] = second compound 0.01 µM, first compound 0.00316 µM
# [16] = second compound 0.01 µM, first compound 0.01 µM
# [17] = second compound 0.01 µM, first compound 0.0316 µM
# [18] = second compound 0.01 µM, first compound 0.1 µM
# [19] = second compound 0.0316 µM, first compound 0.000316 µM
# [20] = second compound 0.0316 µM, first compound 0.001 µM
# [21] = second compound 0.0316 µM, first compound 0.00316 µM
# [22] = second compound 0.0316 µM, first compound 0.01 µM
# [23] = second compound 0.0316 µM, first compound 0.0316 µM
# [24] = second compound 0.0316 µM, first compound 0.1 µM
# [25] = second compound 0.1 µM, first compound 0.000316 µM
# [26] = second compound 0.1 µM, first compound 0.001 µM
# [27] = second compound 0.1 µM, first compound 0.00316 µM
# [28] = second compound 0.1 µM, first compound 0.01 µM
# [29] = second compound 0.1 µM, first compound 0.0316 µM
# [30] = second compound 0.1 µM, first compound 0.1 µM
# [31] = second compound 0.316 µM, first compound 0.000316 µM
# [32] = second compound 0.316 µM, first compound 0.001 µM
# [33] = second compound 0.316 µM, first compound 0.00316 µM
# [34] = second compound 0.316 µM, first compound 0.01 µM
# [35] = second compound 0.316 µM, first compound 0.0316 µM
# [36] = second compound 0.316 µM, first compound 0.1 µM
# [37] = second compound 1 µM, first compound 0.000316 µM
# [38] = second compound 1 µM, first compound 0.001 µM
# [39] = second compound 1 µM, first compound 0.00316 µM
# [40] = second compound 1 µM, first compound 0.01 µM
# [41] = second compound 1 µM, first compound 0.0316 µM
# [42] = second compound 1 µM, first compound 0.1 µM
# [43] = second compound 0.0316 µM, first compound 0.316 µM
# [44] = second compound 0.0316 µM, first compound 1 µM
# [45] = second compound 0.0316 µM, first compound 3.16 µM
# [46] = second compound 0.0316 µM, first compound 10 µM
# [47] = second compound 0.1 µM, first compound 0.316 µM
# [48] = second compound 0.1 µM, first compound 1 µM
# [49] = second compound 0.1 µM, first compound 3.16 µM
# [50] = second compound 0.1 µM, first compound 10 µM
# [51] = second compound 0.316 µM, first compound 0.316 µM
# [52] = second compound 0.316 µM, first compound 1 µM
# [53] = second compound 0.316 µM, first compound 3.16 µM
# [54] = second compound 0.316 µM, first compound 10 µM
# [55] = second compound 1 µM, first compound 0.316 µM
# [56] = second compound 1 µM, first compound 1 µM
# [57] = second compound 1 µM, first compound 3.16 µM
# [58] = second compound 1 µM, first compound 10 µM
# 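Also: spheroids exposed to agents for seven days before luminescence read.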
# 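For viability, T/C in this document: luminescent signal used as a stand-in for spheroid viability; percent viability relative to DMSO vehicle control wells taken as 100%.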
compound,measurement,setting,value
CC(=O)c1c(C)c2cnc(Nc3ccc(N4CCNCC4)cn3)nc2n(C2CCCC2)c1=O + CC(Nc1ccc2c(c1)OCCn1cc(N3C(=O)OCC3C(F)F)nc1-2)C(N)=O,IC50,[1],> 0.1 µM
same,IC50,[2],> 0.1 µM
same,IC50,[3],> 0.1 µM
same,IC50,[4],> 0.1 µM
same,IC50,[5],> 0.1 µM
same,IC50,[6],> 0.1 µM
same,"viability, T/C",[7],100%
same,"viability, T/C",[8],101%
same,"viability, T/C",[9],101%
same,"viability, T/C",[10],105%
same,"viability, T/C",[11],99%
same,"viability, T/C",[12],110%
same,"viability, T/C",[13],108%
same,"viability, T/C",[14],94.6%
same,"viability, T/C",[15],106%
same,"viability, T/C",[16],102%
same,"viability, T/C",[17],108%
same,"viability, T/C",[18],106%
same,"viability, T/C",[19],101%
same,"viability, T/C",[20],105%
same,"viability, T/C",[21],84.5%
same,"viability, T/C",[22],105%
same,"viability, T/C",[23],104%
same,"viability, T/C",[24],97.3%
same,"viability, T/C",[25],101%
same,"viability, T/C",[26],99%
same,"viability, T/C",[27],95.7%
same,"viability, T/C",[28],107%
same,"viability, T/C",[29],107%
same,"viability, T/C",[30],102%
same,"viability, T/C",[31],99.2%
same,"viability, T/C",[32],95.5%
same,"viability, T/C",[33],106%
same,"viability, T/C",[34],99.8%
same,"viability, T/C",[35],108%
same,"viability, T/C",[36],104%
same,"viability, T/C",[37],91.3%
same,"viability, T/C",[38],96%
same,"viability, T/C",[39],97.9%
same,"viability, T/C",[40],94.8%
same,"viability, T/C",[41],88.5%
same,"viability, T/C",[42],81.3%
Cn1ncnc1[C@H]1c2n[nH]c(=O)c3cc(F)cc(c23)N[C@@H]1c1ccc(F)cc1 + COc1c(OCCCN2CCOCC2)ccc2c3n(c(=NC(=O)c4cnc(N)nc4)nc12)CCN3,IC50,[1],> 0.1 µM
same,IC50,[2],> 0.1 µM
same,IC50,[3],> 0.1 µM
same,IC50,[4],> 0.1 µM
same,IC50,[5],< 0.000316 µM
same,IC50,[6],< 0.000316 µM
same,"viability, T/C",[7],103%
same,"viability, T/C",[8],97.5%
same,"viability, T/C",[9],102%
same,"viability, T/C",[10],96.3%
same,"viability, T/C",[11],90.1%
same,"viability, T/C",[12],102%
same,"viability, T/C",[13],115%
same,"viability, T/C",[14],110%
same,"viability, T/C",[15],102%
same,"viability, T/C",[16],93.1%
same,"viability, T/C",[17],97.1%
same,"viability, T/C",[18],107%
same,"viability, T/C",[19],91.1%
same,"viability, T/C",[20],103%
same,"viability, T/C",[21],88.5%
same,"viability, T/C",[22],90.8%
same,"viability, T/C",[23],87.2%
same,"viability, T/C",[24],97.3%
same,"viability, T/C",[25],77.1%
same,"viability, T/C",[26],76%
same,"viability, T/C",[27],83.1%
same,"viability, T/C",[28],73.3%
same,"viability, T/C",[29],75.3%
same,"viability, T/C",[30],71%
same,"viability, T/C",[31],48.3%
same,"viability, T/C",[32],48.3%
same,"viability, T/C",[33],54%
same,"viability, T/C",[34],44.9%
same,"viability, T/C",[35],48.7%
same,"viability, T/C",[36],46%
same,"viability, T/C",[37],27.3%
same,"viability, T/C",[38],28%
same,"viability, T/C",[39],30.1%
same,"viability, T/C",[40],25.9%
same,"viability, T/C",[41],23.9%
same,"viability, T/C",[42],27%
CNC(=O)c1ccc(N2C(=S)N(c3ccc(C#N)c(C(F)(F)F)c3)C(=O)C2(C)C)cc1F + CC(Nc1ccc2c(c1)OCCn1cc(N3C(=O)OCC3C(F)F)nc1-2)C(N)=O,IC50,[1],> 10 µM
same,IC50,[2],> 10 µM
same,IC50,[3],> 10 µM
same,IC50,[4],> 10 µM
same,IC50,[5],> 10 µM
same,IC50,[6],> 10 µM
same,"viability, T/C",[11],105%
same,"viability, T/C",[12],104%
same,"viability, T/C","second compound 0.00316 µM, first compound 0.316 µM",104%
same,"viability, T/C","second compound 0.00316 µM, first compound 1 µM",87.4%
same,"viability, T/C","second compound 0.00316 µM, first compound 3.16 µM",97%
same,"viability, T/C","second compound 0.00316 µM, first compound 10 µM",106%
same,"viability, T/C",[17],103%
same,"viability, T/C",[18],101%
same,"viability, T/C","second compound 0.01 µM, first compound 0.316 µM",108%
same,"viability, T/C","second compound 0.01 µM, first compound 1 µM",97.1%
same,"viability, T/C","second compound 0.01 µM, first compound 3.16 µM",96.1%
same,"viability, T/C","second compound 0.01 µM, first compound 10 µM",99.1%
same,"viability, T/C",[23],95.4%
same,"viability, T/C",[24],104%
same,"viability, T/C",[43],102%
same,"viability, T/C",[44],97.3%
same,"viability, T/C",[45],99.5%
same,"viability, T/C",[46],99.6%
same,"viability, T/C",[29],99.6%
same,"viability, T/C",[30],101%
same,"viability, T/C",[47],103%
same,"viability, T/C",[48],101%
same,"viability, T/C",[49],109%
same,"viability, T/C",[50],80.3%
same,"viability, T/C",[35],89.4%
same,"viability, T/C",[36],90%
same,"viability, T/C",[51],94.2%
same,"viability, T/C",[52],97.8%
same,"viability, T/C",[53],92%
same,"viability, T/C",[54],82%
same,"viability, T/C",[41],90.6%
same,"viability, T/C",[42],89.2%
same,"viability, T/C",[55],95.8%
same,"viability, T/C",[56],90.5%
same,"viability, T/C",[57],88.9%
same,"viability, T/C",[58],76.4%
C#Cc1c(F)ccc2cc(O)cc(-c3ncc4c(N5CC6CCC(C5)N6)nc(OCC56CCCN5CC(F)C6)nc4c3F)c12 (stereo not given),"viability, T/C",compound 0.0316 µM,120% and 98.2% and 102% (2×)
same,"viability, T/C",compound 0.1 µM,105% and 102% (2×) and 101%
same,"viability, T/C",compound 0.316 µM,101% [middle of 4 runs]
same,"viability, T/C",compound 1 µM,101% [middle of 4 runs]
same,"viability, T/C",compound 3.16 µM,108% [middle of 4 runs]
same,"viability, T/C",compound 10 µM,107% [middle of 4 runs]
same,IC50,curve of compound,> 10 µM
CC1(C)CCC(Nc2ncc(C(F)(F)F)c(-c3c[nH]c4c(P(C)(C)=O)c(C#N)ccc34)n2)CN1 (stereo not given) + CC(Nc1ncnc2nc[nH]c12)c1cc2cccc(Cl)c2c(=O)n1-c1ccccc1,IC50,[3],5.14 µM
same,IC50,[4],5.36 µM
same,IC50,[5],5.34 µM
same,IC50,[6],5.19 µM
same,IC50,"curve of first compound, second compound 3.16 µM",5.01 µM
same,IC50,"curve of first compound, second compound 10 µM",3.65 µM
same,"viability, T/C",[23],99%
same,"viability, T/C",[24],85.7%
same,"viability, T/C",[43],92.2%
same,"viability, T/C",[44],92.5%
same,"viability, T/C",[45],83.8%
same,"viability, T/C",[46],3.64%
same,"viability, T/C",[29],115%
same,"viability, T/C",[30],89%
same,"viability, T/C",[47],89.2%
same,"viability, T/C",[48],99%
same,"viability, T/C",[49],89%
same,"viability, T/C",[50],3.93%
same,"viability, T/C",[35],99.2%
same,"viability, T/C",[36],92.4%
same,"viability, T/C",[51],82.2%
same,"viability, T/C",[52],85.1%
same,"viability, T/C",[53],88.1%
same,"viability, T/C",[54],4.29%
same,"viability, T/C",[41],90.8%
same,"viability, T/C",[42],86.2%
same,"viability, T/C",[55],87.3%
same,"viability, T/C",[56],95.5%
same,"viability, T/C",[57],84.8%
same,"viability, T/C",[58],3.92%
same,"viability, T/C","second compound 3.16 µM, first compound 0.0316 µM",79.5%
same,"viability, T/C","second compound 3.16 µM, first compound 0.1 µM",82.5%
same,"viability, T/C","second compound 3.16 µM, first compound 0.316 µM",78%
same,"viability, T/C","second compound 3.16 µM, first compound 1 µM",80.9%
same,"viability, T/C","second compound 3.16 µM, first compound 3.16 µM",82.3%
same,"viability, T/C","second compound 3.16 µM, first compound 10 µM",4.17%
same,"viability, T/C","second compound 10 µM, first compound 0.0316 µM",66.5%
same,"viability, T/C","second compound 10 µM, first compound 0.1 µM",63.2%
same,"viability, T/C","second compound 10 µM, first compound 0.316 µM",63.2%
same,"viability, T/C","second compound 10 µM, first compound 1 µM",60.9%
same,"viability, T/C","second compound 10 µM, first compound 3.16 µM",57%
same,"viability, T/C","second compound 10 µM, first compound 10 µM",3.67%
